# Activity calls are given as the source filed them. No cut-off for these calls is given here.
# Legend:
# Rattus norvegicus [1] = species: Rattus norvegicus; test: Duration of action on ACE in rat; format: functional
# [2] = target: T1, Angiotensin-converting enzyme (Rattus norvegicus) (UniProt P47820); test: Inhibition of Angiotensin I converting enzyme(ACE) at the dose of 100 mg/kg (po) in rat; format: organism-based; set-up: dose 100 mg/kg
# T1 sequence (whole entry): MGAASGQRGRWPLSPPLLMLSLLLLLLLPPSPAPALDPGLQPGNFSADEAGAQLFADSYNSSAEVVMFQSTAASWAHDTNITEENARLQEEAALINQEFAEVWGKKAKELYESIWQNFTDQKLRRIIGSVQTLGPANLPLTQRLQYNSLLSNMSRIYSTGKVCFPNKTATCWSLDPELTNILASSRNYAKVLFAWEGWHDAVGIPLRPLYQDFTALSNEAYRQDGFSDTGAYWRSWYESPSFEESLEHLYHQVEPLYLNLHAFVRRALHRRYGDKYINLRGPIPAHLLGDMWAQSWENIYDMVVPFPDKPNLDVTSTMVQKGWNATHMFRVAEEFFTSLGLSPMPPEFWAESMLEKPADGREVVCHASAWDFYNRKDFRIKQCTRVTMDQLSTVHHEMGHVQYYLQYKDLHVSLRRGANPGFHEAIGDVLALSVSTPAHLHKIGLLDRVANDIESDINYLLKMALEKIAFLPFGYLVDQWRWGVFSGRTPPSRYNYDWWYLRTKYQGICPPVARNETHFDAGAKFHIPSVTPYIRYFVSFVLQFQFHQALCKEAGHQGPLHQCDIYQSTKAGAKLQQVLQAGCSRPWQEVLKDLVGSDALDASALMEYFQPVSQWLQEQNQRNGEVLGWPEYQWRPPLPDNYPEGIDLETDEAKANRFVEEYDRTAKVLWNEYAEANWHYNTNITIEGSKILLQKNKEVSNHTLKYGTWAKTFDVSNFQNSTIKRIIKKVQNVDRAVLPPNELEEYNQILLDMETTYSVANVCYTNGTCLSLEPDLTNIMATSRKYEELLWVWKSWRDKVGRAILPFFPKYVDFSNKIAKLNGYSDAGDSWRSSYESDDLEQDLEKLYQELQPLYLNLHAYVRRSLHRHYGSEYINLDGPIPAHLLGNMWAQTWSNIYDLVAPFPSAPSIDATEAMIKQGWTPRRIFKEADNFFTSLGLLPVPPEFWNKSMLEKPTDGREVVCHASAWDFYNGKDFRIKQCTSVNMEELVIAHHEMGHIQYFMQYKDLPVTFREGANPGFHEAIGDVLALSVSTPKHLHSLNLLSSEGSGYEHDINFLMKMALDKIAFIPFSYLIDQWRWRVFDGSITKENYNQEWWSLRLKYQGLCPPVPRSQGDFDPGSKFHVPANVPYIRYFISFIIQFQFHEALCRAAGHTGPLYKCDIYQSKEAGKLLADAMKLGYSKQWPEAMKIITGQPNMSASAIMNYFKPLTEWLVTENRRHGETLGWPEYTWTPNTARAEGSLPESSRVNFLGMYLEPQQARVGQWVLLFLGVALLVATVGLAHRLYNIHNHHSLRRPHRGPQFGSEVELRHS
# Rattus norvegicus [3] = test: Diuretic activity (ip);ND- Natriuresis and diuresis; format: functional, organism-based; conditions: Urine
# [4] = target: T1, Angiotensin-converting enzyme (Rattus norvegicus); test: Inhibition of Angiotensin I converting enzyme(ACE) at the dose of 100 mg/kg (ip) in rat; format: organism-based; set-up: dose 100 mg/kg
# [5] = target: T2, Angiotensin-converting enzyme (Rattus norvegicus, UniProt P47820); test: In vitro inhibitory activity against Angiotensin I converting enzyme(ACE)
# T2 sequence (P47820 whole entry): T1 sequence (whole entry)
# Rattus norvegicus [6] = test: Diuretic activity (ip); NI-No Increase; format: functional, organism-based; conditions: Urine
# Rattus norvegicus [7] = test: Diuretic activity (po); NI-No Increase; format: functional, organism-based; conditions: Urine
# [8] = target: T1, Angiotensin-converting enzyme (Rattus norvegicus); test: Inhibition of Angiotensin I converting enzyme(ACE) at the dose of 30 mg/kg (po) in rat; format: organism-based; set-up: dose 30 mg/kg
# Canis familiaris [9] = test: Diuretic activity (ip) was tested in dogs; format: functional, organism-based; conditions: Canis lupus familiaris; Urine
# Rattus norvegicus [10] = test: Diuretic activity (ip);NI- No increase; format: functional, organism-based; conditions: Urine
# [11] = target: T2, Angiotensin-converting enzyme; test: (§1) In vitro inhibitory activity against Angiotensin I converting enzyme (ACE)
# Rattus norvegicus [12] = test: Diuretic activity (po);NI-No increase; format: functional, organism-based; conditions: Urine
# [13] = target: T1, Angiotensin-converting enzyme (Rattus norvegicus); test: Inhibition of Angiotensin I converting enzyme(ACE) at the dose of 10 mg/kg (po) in rat; format: organism-based; set-up: dose 10 mg/kg
# [14] = target: T1, Angiotensin-converting enzyme (Rattus norvegicus); test: Inhibition of Angiotensin I converting enzyme(ACE) at the dose of 10 mg/kg (ip) in rat; format: organism-based; set-up: dose 10 mg/kg; scale not given: the % may be the effect or the level left
# Rattus norvegicus [15] = test: Diuretic activity (po);NI- No increase; format: functional, organism-based; conditions: Urine
# [16] = target: Angiotensin-converting enzyme (Homo sapiens) (UniProt P12821); test: In vitro inhibitory activity against Angiotensin I converting enzyme(ACE) in dog; conditions: Canis lupus familiaris; target entry is the homologue from another species; concentration not given here
# Chain of Angiotensin-converting enzyme (Homo sapiens) (P12821 whole entry): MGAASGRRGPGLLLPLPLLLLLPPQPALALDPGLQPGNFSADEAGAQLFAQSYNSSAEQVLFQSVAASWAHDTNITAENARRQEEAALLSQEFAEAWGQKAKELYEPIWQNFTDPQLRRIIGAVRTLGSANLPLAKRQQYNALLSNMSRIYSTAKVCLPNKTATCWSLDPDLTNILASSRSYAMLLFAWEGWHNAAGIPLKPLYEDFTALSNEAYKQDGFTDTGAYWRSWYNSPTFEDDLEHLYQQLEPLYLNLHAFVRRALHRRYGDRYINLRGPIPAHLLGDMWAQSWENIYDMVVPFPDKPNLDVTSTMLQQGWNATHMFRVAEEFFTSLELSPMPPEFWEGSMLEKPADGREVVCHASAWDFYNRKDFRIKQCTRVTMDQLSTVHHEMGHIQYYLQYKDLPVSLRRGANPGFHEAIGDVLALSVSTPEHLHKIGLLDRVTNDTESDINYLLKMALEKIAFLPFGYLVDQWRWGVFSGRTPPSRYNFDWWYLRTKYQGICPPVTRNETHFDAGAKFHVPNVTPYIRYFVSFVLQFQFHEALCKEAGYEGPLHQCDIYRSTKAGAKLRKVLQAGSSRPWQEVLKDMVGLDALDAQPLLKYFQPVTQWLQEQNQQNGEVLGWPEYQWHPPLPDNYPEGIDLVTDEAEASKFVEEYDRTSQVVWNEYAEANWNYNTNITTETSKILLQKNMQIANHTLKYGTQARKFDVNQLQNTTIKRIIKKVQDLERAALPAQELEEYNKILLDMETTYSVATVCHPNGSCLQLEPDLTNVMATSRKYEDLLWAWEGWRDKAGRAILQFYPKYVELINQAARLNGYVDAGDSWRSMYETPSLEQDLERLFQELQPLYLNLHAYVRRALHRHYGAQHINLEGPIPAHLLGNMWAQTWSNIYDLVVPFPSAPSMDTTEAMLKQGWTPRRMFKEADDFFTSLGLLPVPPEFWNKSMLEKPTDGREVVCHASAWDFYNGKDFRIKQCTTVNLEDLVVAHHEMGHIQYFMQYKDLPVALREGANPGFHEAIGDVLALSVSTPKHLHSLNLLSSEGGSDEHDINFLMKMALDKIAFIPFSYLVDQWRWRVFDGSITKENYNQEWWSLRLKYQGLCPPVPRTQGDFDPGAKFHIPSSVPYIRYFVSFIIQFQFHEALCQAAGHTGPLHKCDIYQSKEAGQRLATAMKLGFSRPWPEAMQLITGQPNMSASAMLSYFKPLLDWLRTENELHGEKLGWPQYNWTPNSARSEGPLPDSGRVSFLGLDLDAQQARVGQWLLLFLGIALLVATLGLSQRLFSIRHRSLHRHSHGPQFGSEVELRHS
# Canis familiaris [17] = test: Diuretic activity (po) in dog; ND- Natriuresis and diuresis; format: functional, organism-based; conditions: Canis lupus familiaris; Urine
# Rattus norvegicus [18] = test: Diuretic activity (po); ND-Natriuresis&diuresis; format: functional, organism-based; conditions: Urine
# Canis familiaris [19] = test: Maximum percent decrease in blood pressure at the dose of 100 mg/kg ip; format: functional, Canis lupus familiaris; conditions: route intraperitoneal
# Rattus norvegicus [20] = test: Diuretic activity (po);ND- Natriuresis and diuresis; format: functional, organism-based; conditions: Urine
# [21] = target: T1, Angiotensin-converting enzyme (Rattus norvegicus); test: as §1; conditions: concentration not given here
# Rattus norvegicus [22] = test: Diuretic activity (ip);NI- No Increase; format: functional, organism-based; conditions: Urine
# Rattus norvegicus [23] = test: Diuretic activity (ip);NI-No increase; format: functional, organism-based; conditions: Urine
# Canis familiaris [24] = test: Diuretic activity (po) in dog; ND-Natriuresis&diuresis; format: functional, organism-based; conditions: Canis lupus familiaris; Urine
# [25] = target: Angiotensin-converting enzyme (Homo sapiens) (UniProt P12821); test: Inhibition of Angiotensin I converting enzyme(ACE) at the dose of 100 mg/kg (ip) in dog; format: organism-based; set-up: dose 100 mg/kg; conditions: Canis lupus familiaris; target entry is the homologue from another species
Structure (SMILES),Duration (Rattus norvegicus [1]) [h],ACE inhibition [2] [%],ACE inhibition [4] [%],IC50 [5] [µM],IC50 [11] [µM],ACE inhibition [13] [%],also measured
CCOC(=O)C(CCc1ccccc1)N[C@@H](C)C(=O)N(C1Cc2ccccc2C1)[C@H](CCCCNC(=O)c1ccc(Cl)c(S(N)(=O)=O)c1)C(=O)O.Cl (stereo not given in full),3,50,50,,,,Activity (Rattus norvegicus [3]): Natriuresis and diuresis
Br.C[C@H](N[C@@H](CCc1ccccc1)C(=O)O)C(=O)N(C1CCC2(CC1)Nc1cc(Cl)c(S(N)(=O)=O)cc1S(=O)(=O)N2)C(CCCCN)C(=O)O (stereo not given in full),<1,50,,95,,,Activity (Rattus norvegicus [3]): Natriuresis and diuresis
CCOC(=O)[C@H](CCc1ccccc1)N[C@@H](C)C(=O)N(CC(=O)O)Cc1cc(C(C)(C)C)cc(I)c1O,,< 30,80,80,,,Activity (Rattus norvegicus [6]): No increase
C[C@H](N[C@@H](CCc1ccccc1)C(=O)O)C(=O)N(CC(=O)O)CC(=O)Nc1cc(C(=O)O)cc(S(N)(=O)=O)c1Cl.Cl,3,< 30,80,2.2,,,Activity (Rattus norvegicus [7]): No increase; ACE inhibition [8]: < 30%
C[C@H](CS)C(=O)N1CCC[C@H]1C(=O)O,,,,,,,Activity (Canis familiaris [9]): inactive
CCOC(=O)c1cc(S(N)(=O)=O)c(NCCCC[C@H](C(=O)O)N(Cc2ccccc2)C(=O)[C@H](C)N[C@@H](CCc2ccccc2)C(=O)OCC)cc1Cl.Cl,3,< 30,80,22,,,Activity (Rattus norvegicus [10]): No increase
C[C@H](N[C@@H](CCc1ccccc1)C(=O)O)C(=O)N(CC(=O)O)C1CCC2(CC1)Nc1cc(Cl)c(S(N)(=O)=O)cc1S(=O)(=O)N2 (stereo not given in full),3,80,,3.5,,,
C[C@H](N[C@@H](CCc1ccccc1)C(=O)O)C(=O)N(CC(=O)O)[C@H](C)C1Nc2cc(Cl)c(S(N)(=O)=O)cc2S(=O)(=O)N1 (stereo not given in full),3,80,,2.7,,,ACE inhibition [8]: < 30%
CCOC(=O)[C@H](CCc1ccccc1)N[C@@H](CCCCNC(=O)c1ccc(Cl)c(S(N)(=O)=O)c1)C(=O)N(CC(=O)O)C1Cc2ccccc2C1.Cl,>3,100,,,0.04,50,Activity (Rattus norvegicus [12]): No increase; Activity [14]: 100%
Cl.NS(=O)(=O)c1cc(C(=O)NCCCC[C@H](N[C@@H](CCc2ccccc2)C(=O)O)C(=O)N(CC(=O)O)C2Cc3ccccc3C2)ccc1Cl,3,,,,0.007,,Activity (Rattus norvegicus [15]): No increase
NS(=O)(=O)c1cc2c(cc1Cl)NC(CN(CC(=O)O)C(=O)[C@H](CCCCNC(=O)OCc1ccccc1)N[C@@H](CCc1ccccc1)C(=O)O)NS2(=O)=O (stereo not given in full),<1,,100,,0.24,,Activity (Rattus norvegicus [15]): No increase
Cl.NCCCC[C@H](N[C@@H](CCc1ccccc1)C(=O)O)C(=O)N(CC(=O)O)CC1Nc2cc(Cl)c(S(N)(=O)=O)cc2S(=O)(=O)N1 (stereo not given in full),3,100,100,0.22,,80,inhibition [16]: 100%; ACE inhibition [8]: 80%; Activity (Canis familiaris [17]): Natriuresis and diuresis; Activity (Rattus norvegicus [18]): Natriuresis and diuresis; Decrease (Canis familiaris [19]): 0%
CCOC(=O)[C@H](CCc1ccccc1)N[C@@H](C)C(=O)N(CC(=O)O)N(C)CC1Nc2cc(Cl)c(S(N)(=O)=O)cc2S(=O)(=O)N1.Cl (stereo not given in full),<1,50,,,,,Activity (Rattus norvegicus [20]): Natriuresis and diuresis; inhibition [21]: 74%; Activity [14]: 80%
Cl.NS(=O)(=O)c1cc(C(=O)NCCCC[C@H](N[C@@H](CCc2ccccc2)C(=O)O)C(=O)N2CCC[C@H]2C(=O)O)ccc1Cl,>3,100,100,,0.0065,80,Activity (Rattus norvegicus [22]): No increase; Activity (Rattus norvegicus [15]): No increase
C[C@H](N[C@@H](CCc1ccccc1)C(=O)O)C(=O)N(CCCNC(=O)c1ccc(Cl)c(S(N)(=O)=O)c1)CC(=O)O,,,,,38,,Activity (Rattus norvegicus [23]): No increase
CCOC(=O)c1cc(S(N)(=O)=O)c(Cl)cc1NCCCC[C@H](C(=O)O)N(Cc1ccccc1)C(=O)[C@H](C)N[C@@H](CCc1ccccc1)C(=O)OCC.Cl,<1,80,100,28,,50,Activity (Rattus norvegicus [6]): No increase; ACE inhibition [8]: 80%
C[C@H](N[C@@H](CCc1ccccc1)C(=O)O)C(=O)N(CC(=O)O)Cc1cc(C(C)(C)C)cc(I)c1O.Cl,3,,100,0.16,,,Activity (Rattus norvegicus [10]): No increase
CCOC(=O)[C@H](CCc1ccccc1)N[C@@H](C)C(=O)N(CC(=O)O)[C@H](CC(C)C)C1Nc2cc(Cl)c(S(N)(=O)=O)cc2S(=O)(=O)N1.Cl (stereo not given in full),<1,,,,,< 30,Activity (Rattus norvegicus [15]): No increase; inhibition [21]: < 20%; Activity [14]: 50%
C[C@H](N[C@@H](CCc1ccccc1)C(=O)O)C(=O)N(CCCC1Nc2cc(Cl)c(S(N)(=O)=O)cc2S(=O)(=O)N1)CC(=O)O.Cl (stereo not given in full),> 3,100,100,0.23,,50,Activity (Canis familiaris [24]): Natriuresis and diuresis; inhibition [25]: > 100%; ACE inhibition [8]: 50%; Decrease (Canis familiaris [19]): 14%; Activity (Rattus norvegicus [20]): Natriuresis and diuresis
CCOC(=O)[C@H](CCc1ccccc1)N[C@@H](CCCCNC(=O)c1ccc(Cl)c(S(N)(=O)=O)c1)C(=O)N1CCC[C@H]1C(=O)O.Cl,3,80,80,,15,80,Activity (Rattus norvegicus [3]): Natriuresis and diuresis

# — ChEMBL document CHEMBL1124789, “Angiotensin-converting enzyme inhibitors. 9. Novel [[N-(1-carboxy-3-phenylpropyl)amino]acyl]glycine derivatives with diuretic activity” (J Med Chem, 1990)
